This is an account of results in patent publication US12486253B2, “Therapeutics for the degradation of mutant BRAF” (C4 THERAPEUTICS, INC., priority 2021, dated 2025).

This assay deals with BRAF V600E (Homo sapiens, UniProt P15056, V600E). Kind of assay: HiBiT cellular BRAF^V600E degradation assay. Format: cell-based. The settings on record: A375.10 cells, 24 h; for DC50: concentration at which 50% of total cellular BRAF^V600E is degraded; for Emax: residual protein remaining in the cell, read-out: HiBit 24 h Emax. (HiBiT is a short tag that completes a luciferase, so light tracks the accessible tagged protein.)
Sequence of BRAF V600E (P15056 whole entry V600E): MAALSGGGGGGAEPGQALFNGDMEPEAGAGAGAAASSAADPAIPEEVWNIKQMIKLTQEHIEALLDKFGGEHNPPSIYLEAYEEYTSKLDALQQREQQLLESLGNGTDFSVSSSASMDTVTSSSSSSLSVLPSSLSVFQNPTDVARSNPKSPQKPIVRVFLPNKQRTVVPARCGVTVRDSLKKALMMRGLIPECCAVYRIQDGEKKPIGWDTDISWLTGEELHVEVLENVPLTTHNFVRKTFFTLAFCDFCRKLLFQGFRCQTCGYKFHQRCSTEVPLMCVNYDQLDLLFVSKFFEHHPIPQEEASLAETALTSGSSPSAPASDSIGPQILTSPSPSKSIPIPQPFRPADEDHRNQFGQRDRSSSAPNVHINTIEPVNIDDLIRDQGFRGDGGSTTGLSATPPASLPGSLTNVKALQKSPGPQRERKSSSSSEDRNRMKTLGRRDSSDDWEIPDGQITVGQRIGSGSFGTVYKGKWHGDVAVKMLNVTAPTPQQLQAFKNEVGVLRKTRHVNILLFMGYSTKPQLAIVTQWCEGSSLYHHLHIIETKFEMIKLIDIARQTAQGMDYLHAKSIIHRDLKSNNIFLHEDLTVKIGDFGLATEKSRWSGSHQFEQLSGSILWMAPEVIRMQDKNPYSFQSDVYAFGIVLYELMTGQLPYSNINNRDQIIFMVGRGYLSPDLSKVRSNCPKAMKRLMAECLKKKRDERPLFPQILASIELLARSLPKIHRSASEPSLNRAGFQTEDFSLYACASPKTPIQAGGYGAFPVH

By DC50 is commonly meant the midpoint of the concentration-degradation curve. Read a high DC50 as degradation only at high concentration. For orientation: Emax means the size of the effect at its maximum, as opposed to the concentration needed. In the case of `CCN(C)S(=O)(=O)Nc1ccc(F)c(Oc2ccc3ncn([C@H]4COC5(CCN(C(=O)CN6CCC(c7ccc(N[C@H]8CCC(=O)NC8=O)cc7F)CC6)CC5)C4)c(=O)c3c2)c1C#N` [Example 43, (3R)-3-[6-[2-cyano-3-[[ethyl(methyl)sulfamoyl]amino]-6-fluorophenoxy]-4-oxoquinazolin-3-yl]-8-[2-[4-[4-[[(3S)-2,6-dioxopiperidin-3-yl]amino]-2-fluorophenyl]piperidin-1-yl]acetyl]-1-oxa-8-azaspiro[4.5]decane], the DC50 was 23.7 nM and the Emax stood at 9.95%.

For `CCN(C)S(=O)(=O)Nc1ccc(F)c(Oc2ccc3ncc([C@H]4COC5(CCN(C(=O)CC6(O)CCN(c7cc8c(cc7F)c(N7CCC(=O)NC7=O)nn8C)CC6)CC5)C4)c(OC)c3c2)c1C#N` (single isomer, unassigned) [Example 225], the DC50 is > 5000 nM and the Emax was determined as 65.3%.

In the case of `CCN(C)S(=O)(=O)Nc1ccc(F)c(Oc2ccc3ncn([C@H]4COC5(CCN(C(=O)CN6CCN(c7cc8c(cc7F)c(N7CCC(=O)NC7=O)nn8C)CC6)CC5)C4)c(=O)c3c2)c1C#N` [Example 164, (3R)-3-[6-[2-cyano-3-[[ethyl(methyl)sulfamoyl]amino]-6-fluorophenoxy]-4-oxoquinazolin-3-yl]-8-[2-[4-[3-(2,4-dioxo-1,3-diazinan-1-yl)-5-fluoro-1-methylindazol-6-yl]piperazin-1-yl]acetyl]-1-oxa-8-azaspiro[4.5]decane], it took 26.6 nM to reach half-maximal degradation (DC50) and the Emax is 15.6%.

For `CCN(C)S(=O)(=O)Nc1ccc(F)c(Oc2ccc3ncn(CCC4CCN(C(=O)CN5CCC(c6ccc(NC7CCC(=O)NC7=O)cc6)CC5)CC4)c(=O)c3c2)c1C#N` (stereo not drawn) [Example A1, 6-[2-cyano-3-[[ethyl(methyl)sulfamoyl]amino]-6-fluoro-phenoxy]-3-[2-[1-[2-[4-[4-[(2,6-dioxo-3-piperidyl)amino]phenyl]-1-piperidyl]acetyl]-4-piperidyl]ethyl]-4-oxo-quinazoline], the DC50 was 78 nM and the Emax turned out to be 23%.

Consider `CCN(C)S(=O)(=O)Nc1ccc(F)c(Oc2ccc3ncn([C@H]4CCC5(CCN(C(=O)CN6CCN(c7ccc(C8CCC(=O)NC8=O)cc7F)CC6)CC5)C4)c(=O)c3c2)c1C#N` (stereo partly drawn) [Example 55, 6-[2-cyano-3-[[ethyl(methyl)sulfamoyl]amino]-6-fluorophenoxy]-3-[(3S)-8-[2-[4-[4-(2,6-dioxopiperidin-3-yl)-2-fluorophenyl]piperazin-1-yl]acetyl]-8-azaspiro[4.5]decan-3-yl]-4-oxoquinazoline], for which the half-maximal degradation concentration (DC50) was determined as 30 nM and the Emax was 14.7%.

`Cn1nc(N2CCC(=O)NC2=O)c2cc(F)c(N3CCC(O)(CC(=O)N4CCC5(CC4)C[C@@H](n4cnc6ccc(Oc7c(F)ccc(NS(=O)(=O)N8CCCC8)c7C#N)cc6c4=O)CO5)CC3)cc21` [Example 195, N-[2-cyano-3-[3-[(3R)-8-[2-[1-[3-(2,4-dioxo-1,3-diazinan-1-yl)-5-fluoro-1-methylindazol-6-yl]-4-hydroxypiperidin-4-yl]acetyl]-1-oxa-8-azaspiro[4.5]decan-3-yl]-4-oxoquinazolin-6-yl]oxy-4-fluorophenyl]pyrrolidine-1-sulfonamide]: the DC50 turned out to be 16 nM and the Emax turned out to be 26.3%.

With `CCN(C)S(=O)(=O)Nc1ccc(F)c(Oc2ccc3ncn(-c4ccc(N5CCN(C(=O)CN6CCC(c7ccc(NC8CCC(=O)NC8=O)cc7F)CC6)CC5)nc4)c(=O)c3c2)c1C#N` (stereo not drawn) [Example 85, 6-[2-cyano-3-[[ethyl(methyl)sulfamoyl]amino]-6-fluorophenoxy]-3-[6-[4-[2-[4-[4-[(2,6-dioxopiperidin-3-yl)amino]-2-fluorophenyl]piperidin-1-yl]acetyl]piperazin-1-yl]pyridin-3-yl]-4-oxoquinazoline], the DC50 was determined as 15.8 nM and the Emax is 11%.

In the case of `CCN(C)S(=O)(=O)Nc1ccc(F)c(Oc2ccc3ncn(C4CCC5(CCN(C(=O)CN6CCC(c7ccc(NC8CCC(=O)NC8=O)cc7F)CC6)CC5)C4)c(=O)c3c2)c1C#N` (stereo not drawn) [Example 28, 6-[2-cyano-3-[[ethyl(methyl)sulfamoyl]amino]-6-fluorophenoxy]-3-[8-[2-[4-[4-[(2,6-dioxopiperidin-3-yl)amino]-2-fluorophenyl]piperidin-1-yl]acetyl]-8-azaspiro[4.5]decan-3-yl]-4-oxoquinazoline], half-maximal degradation (DC50) was put at 22.9 nM and the Emax was determined as 10.2%.

In the case of `CCN(C)S(=O)(=O)Nc1ccc(F)c(Oc2ccc3ncn(-c4cnc(N5CCN(C(=O)CN6CCC(c7ccc(N[C@@H]8CCC(=O)NC8=O)cc7F)CC6)CC5)nc4)c(=O)c3c2OC)c1C#N` [Example 99, 6-[2-cyano-3-[[ethyl(methyl)sulfamoyl]amino]-6-fluorophenoxy]-3-[2-[4-[2-[4-[4-[[(3R)-2,6-dioxopiperidin-3-yl]amino]-2-fluorophenyl]piperidin-1-yl]acetyl]piperazin-1-yl]pyrimidin-5-yl]-5-methoxy-4-oxoquinazoline], the DC50 was 34.2 nM and the Emax is 11.4%.

As to `CCN(C)S(=O)(=O)Nc1ccc(F)c(Oc2ccc3ncn(CCN4CCN(C(=O)CN5CCC(c6ccc(NC7CCC(=O)NC7=O)cc6F)CC5)CC4)c(=O)c3c2)c1C#N` (stereo not drawn) [Example 8, 6-[2-cyano-3-[[ethyl(methyl)sulfamoyl]amino]-6-fluorophenoxy]-3-[2-[4-[2-[4-[4-[(2,6-dioxopiperidin-3-yl)amino]-2-fluorophenyl]piperidin-1-yl]acetyl]piperazin-1-yl]ethyl]-4-oxoquinazoline], it took 27.9 nM to reach half-maximal degradation (DC50) and the maximal response (Emax) worked out at 10%.

For `CCN(C)S(=O)(=O)Nc1ccc(F)c(Oc2ccc3ncn(CC4COC5(CCN(C(=O)CN6CCC(c7ccc(NC8CCC(=O)NC8=O)cc7F)CC6)CC5)C4)c(=O)c3c2)c1C#N` (stereo not drawn) [Example 36, 3-[[6-[2-cyano-3-[[ethyl(methyl)sulfamoyl]amino]-6-fluorophenoxy]-4-oxoquinazolin-3-yl]methyl]-8-[2-[4-[4-[(2,6-dioxopiperidin-3-yl)amino]-2-fluorophenyl]piperidin-1-yl]acetyl]-1-oxa-8-azaspiro[4.5]decane], the DC50 stood at 51.3 nM and the Emax turned out to be 10.3%.

With `CCN(C)S(=O)(=O)Nc1ccc(F)c(Oc2ccc3ncn(CCCC4(F)CCN(C(=O)CN5CCC(c6ccc(NC7CCC(=O)NC7=O)cc6F)CC5)CC4)c(=O)c3c2)c1C#N` (stereo not drawn) [Example 15, 6-[2-cyano-3-[[ethyl(methyl)sulfamoyl]amino]-6-fluorophenoxy]-3-[3-[1-[2-[4-[4-[(2,6-dioxopiperidin-3-yl)amino]-2-fluorophenyl]piperidin-1-yl]acetyl]-4-fluoropiperidin-4-yl]propyl]-4-oxoquinazoline], the DC50 stood at 11.1 nM and the Emax is 7.29%.

Regarding `CCN(C)S(=O)(=O)Nc1ccc(F)c(Oc2ccc3ncc(-n4cc(N5CCCN(C(=O)CN6CCC(c7ccc(NC8CCC(=O)NC8=O)cc7F)CC6)CC5)cn4)nc3c2)c1C#N` (stereo not drawn) [Example 215, 7-[2-cyano-3-[[ethyl(methyl)sulfamoyl]amino]-6-fluorophenoxy]-2-[4-[4-[2-[4-[4-[(2,6-dioxopiperidin-3-yl)amino]-2-fluorophenyl]piperidin-1-yl]acetyl]-1,4-diazepan-1-yl]pyrazol-1-yl]quinoxaline], it took 18.6 nM to reach half-maximal degradation (DC50) and the Emax was found to be 7.82%.

As to `CCN(C)S(=O)(=O)Nc1ccc(F)c(Oc2ccc3ncn(C4CCC5(CC4)CCN(C(=O)CN4CCC(c6ccc(NC7CCC(=O)NC7=O)cc6F)CC4)C5)c(=O)c3c2)c1C#N` (stereo not drawn) [Example 32, 6-[2-cyano-3-[[ethyl(methyl)sulfamoyl]amino]-6-fluorophenoxy]-3-[2-[2-[4-[4-[(2,6-dioxopiperidin-3-yl)amino]-2-fluorophenyl]piperidin-1-yl]acetyl]-2-azaspiro[4.5]decan-8-yl]-4-oxoquinazoline], half-maximal degradation (DC50) was put at 40.3 nM and the Emax is 11.4%.

For `N#Cc1c(NS(=O)(=O)C2CC2)ccc(F)c1Oc1ccc2ncn(-c3cnc(N4CCN(C(=O)CN5CCC(c6ccc(N[C@H]7CCC(=O)NC7=O)cc6F)CC5)CC4)nc3)c(=O)c2c1` [Example 114, N-[2-cyano-3-[3-[2-[4-[2-[4-[4-[[(3S)-2,6-dioxopiperidin-3-yl]amino]-2-fluorophenyl]piperidin-1-yl]acetyl]piperazin-1-yl]pyrimidin-5-yl]-4-oxoquinazolin-6-yl]oxy-4-fluorophenyl]cyclopropanesulfonamide], the DC50 came out at 8.33 nM and the Emax is 9.6%.

As for `CC(C)S(=O)(=O)Nc1ccc(F)c(Oc2ccc3ncn([C@H]4COC5(CCN(C(=O)CN6CCC(c7ccc(NC8CCC(=O)NC8=O)cc7F)CC6)CC5)C4)c(=O)c3c2)c1C#N` (stereo partly drawn) [Example 61, N-[2-cyano-3-[3-[(3R)-8-[2-[4-[4-[(2,6-dioxopiperidin-3-yl)amino]-2-fluorophenyl]piperidin-1-yl]acetyl]-1-oxa-8-azaspiro[4.5]decan-3-yl]-4-oxoquinazolin-6-yl]oxy-4-fluorophenyl]propane-2-sulfonamide], half-maximal degradation (DC50) was put at 21.1 nM and the Emax amounted to 8.44%.

With `CO[C@@H]1CCN(S(=O)(=O)Nc2ccc(F)c(Oc3ccc4ncn([C@H]5COC6(CCN(C(=O)CC7(O)CCN(c8cc9c(cc8F)c(N8CCC(=O)NC8=O)nn9C)CC7)CC6)C5)c(=O)c4c3)c2C#N)C1` [Example 177, (3R)—N-[2-cyano-3-[3-[(3R)-8-[2-[1-[3-(2,4-dioxo-1,3-diazinan-1-yl)-5-fluoro-1-methylindazol-6-yl]-4-hydroxypiperidin-4-yl]acetyl]-1-oxa-8-azaspiro[4.5]decan-3-yl]-4-oxoquinazolin-6-yl]oxy-4-fluorophenyl]-3-methoxypyrrolidine-1-sulfonamide], half-maximal degradation (DC50) was put at 18 nM and the Emax is 22.3%.

In the case of `CCN(C)S(=O)(=O)Nc1ccc(F)c(Oc2ccc3ncn(C4COC5(CCN(C(=O)CN6CCC(c7ccc(NC8CCC(=O)NC8=O)cc7F)CC6)CC5)C4)c(=O)c3c2C)c1C#N` (stereo not drawn) [Example 59, 3-[6-[2-cyano-3-[[ethyl(methyl)sulfamoyl]amino]-6-fluorophenoxy]-5-methyl-4-oxoquinazolin-3-yl]-8-[2-[4-[4-[(2,6-dioxopiperidin-3-yl)amino]-2-fluorophenyl]piperidin-1-yl]acetyl]-1-oxa-8-azaspiro[4.5]decane], the DC50 was determined as 56 nM and the Emax was 10.4%.
